Experimental data published in ChEMBL document CHEMBL1141581, “Cyclic guanidines as dual 5-HT5A/5-HT7 receptor ligands: structure-activity relationship elucidation” (Bioorg Med Chem Lett, 2008).

Key:
Homo sapiens [1] = organism: Homo sapiens; test: Selectivity for human recombinant 5HT5A receptor over human recombinant 5HT2A receptor
[2] = biological target: T1, 5-hydroxytryptamine receptor 2C (Homo sapiens, UniProt P28335); test: Displacement of [3H]mesulergine from human recombinant 5HT2C receptor expressed in HEK293-EBNA cells; format: cell-based
T1 sequence (P28335 whole entry): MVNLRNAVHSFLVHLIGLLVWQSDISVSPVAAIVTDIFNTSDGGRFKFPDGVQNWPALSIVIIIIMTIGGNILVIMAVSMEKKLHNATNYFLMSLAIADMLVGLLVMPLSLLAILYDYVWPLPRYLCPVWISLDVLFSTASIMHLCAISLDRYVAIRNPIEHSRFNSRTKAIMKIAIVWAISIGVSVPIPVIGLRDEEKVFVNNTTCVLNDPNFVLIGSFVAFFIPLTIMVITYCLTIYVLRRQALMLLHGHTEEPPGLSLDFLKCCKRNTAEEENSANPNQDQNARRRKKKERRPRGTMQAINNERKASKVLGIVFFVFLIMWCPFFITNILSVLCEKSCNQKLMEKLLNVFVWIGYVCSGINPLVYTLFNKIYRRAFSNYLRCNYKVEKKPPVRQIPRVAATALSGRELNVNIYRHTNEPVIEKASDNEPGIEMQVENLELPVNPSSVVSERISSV

[3] = biological target: 5-hydroxytryptamine receptor 1D (Homo sapiens, UniProt P28221); test: Displacement of [3H]LSD from human recombinant 5HT1D receptor expressed in HEK293-EBNA cells; format: cell-based
Homo sapiens [4] = organism: Homo sapiens; test: Selectivity for human recombinant 5HT5A receptor over human recombinant 5HT6 receptor
Homo sapiens [5] = organism: Homo sapiens; test: Selectivity for human recombinant 5HT5A receptor over human 5HT3 receptor
[6] = biological target: 5-hydroxytryptamine receptor 7 (Homo sapiens, UniProt P34969); test: Displacement of [3H]LSD from human recombinant 5HT7 receptor expressed in HEK293-EBNA cells; format: cell-based
[7] = biological target: T2, 5-hydroxytryptamine receptor 1A (Homo sapiens, UniProt P08908); test: Displacement of [3H]8-OH-DPAT from human recombinant 5HT1A receptor expressed in HEK293-EBNA cells; format: cell-based
T2 sequence (P08908 whole entry): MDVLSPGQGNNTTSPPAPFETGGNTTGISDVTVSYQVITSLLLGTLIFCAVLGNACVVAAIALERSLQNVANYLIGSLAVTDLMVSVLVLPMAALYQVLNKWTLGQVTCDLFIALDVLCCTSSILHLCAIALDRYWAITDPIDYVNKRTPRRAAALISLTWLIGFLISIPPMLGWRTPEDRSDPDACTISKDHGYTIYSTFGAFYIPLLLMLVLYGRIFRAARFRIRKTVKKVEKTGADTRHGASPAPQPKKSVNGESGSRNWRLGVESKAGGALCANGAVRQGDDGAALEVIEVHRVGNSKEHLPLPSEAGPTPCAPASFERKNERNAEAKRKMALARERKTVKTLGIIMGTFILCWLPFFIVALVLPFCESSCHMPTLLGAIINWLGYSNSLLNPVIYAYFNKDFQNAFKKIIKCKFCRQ

[8] = biological target: T3, 5-hydroxytryptamine receptor 5A (Homo sapiens, UniProt P47898); test: Displacement of [3H]LSD from human recombinant 5HT5A receptor expressed in HEK293-EBNA cells; format: cell-based
Homo sapiens [9] = organism: Homo sapiens; test: Selectivity for human recombinant 5HT5A receptor over human recombinant 5HT1D receptor
[10] = biological target: 5-hydroxytryptamine receptor 2A (Homo sapiens, UniProt P28223); test: Displacement of [3H]ketanserin from human recombinant 5HT2A receptor expressed in HEK293-EBNA cells; format: cell-based
[11] = biological target: T4, 5-hydroxytryptamine receptor 3A (Homo sapiens, UniProt P46098); test: Binding affinity to human 5HT3 receptor
T4 sequence (P46098 whole entry): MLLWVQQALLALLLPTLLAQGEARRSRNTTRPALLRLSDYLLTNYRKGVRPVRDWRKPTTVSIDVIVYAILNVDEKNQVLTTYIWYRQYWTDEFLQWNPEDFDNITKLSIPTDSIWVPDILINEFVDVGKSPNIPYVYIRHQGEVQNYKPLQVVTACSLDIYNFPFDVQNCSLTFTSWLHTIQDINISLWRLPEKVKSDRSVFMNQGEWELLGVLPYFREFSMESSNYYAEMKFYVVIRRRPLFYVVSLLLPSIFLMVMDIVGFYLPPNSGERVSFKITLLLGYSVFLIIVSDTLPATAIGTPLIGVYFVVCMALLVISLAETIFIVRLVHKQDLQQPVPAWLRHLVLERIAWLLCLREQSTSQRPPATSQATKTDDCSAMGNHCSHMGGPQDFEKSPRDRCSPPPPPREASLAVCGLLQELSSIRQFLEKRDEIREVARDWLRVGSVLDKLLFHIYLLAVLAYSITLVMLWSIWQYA

[12] = biological target: 5-hydroxytryptamine receptor 6 (Homo sapiens, UniProt P50406); test: Displacement of [3H]LSD from human recombinant 5HT6 receptor expressed in HEK293-EBNA cells; format: cell-based
[13] = Inhibition of adrenergic alpha-1 receptor at 1 uM
[14] = Protein binding in mouse plasma; format: ADME, cell-free; details: read-out: PPB (converted)
[15] = Inhibition of adrenergic alpha-2 receptor
[16] = biological target: T5, 5-hydroxytryptamine receptor 2B (Homo sapiens, UniProt P41595); details: 1 uM
Description: Inhibition of 5HT2B receptor at 1 uM

Histamine H1 receptor = Histamine H1 receptor (Homo sapiens, UniProt P35367); test: Binding affinity to histamine H1 receptor
[17] = biological target: T5, 5-hydroxytryptamine receptor 2B; test: Inhibition of 5HT2B receptor
[18] = biological target: T3, 5-hydroxytryptamine receptor 5A; test: Antagonist activity at human recombinant 5HT5A receptor expressed in HEK293-EBNA cells by [35S]GTP-gamma-S binding assay; format: functional, cell-based

Chain of 5-hydroxytryptamine receptor 7 (P34969 whole entry): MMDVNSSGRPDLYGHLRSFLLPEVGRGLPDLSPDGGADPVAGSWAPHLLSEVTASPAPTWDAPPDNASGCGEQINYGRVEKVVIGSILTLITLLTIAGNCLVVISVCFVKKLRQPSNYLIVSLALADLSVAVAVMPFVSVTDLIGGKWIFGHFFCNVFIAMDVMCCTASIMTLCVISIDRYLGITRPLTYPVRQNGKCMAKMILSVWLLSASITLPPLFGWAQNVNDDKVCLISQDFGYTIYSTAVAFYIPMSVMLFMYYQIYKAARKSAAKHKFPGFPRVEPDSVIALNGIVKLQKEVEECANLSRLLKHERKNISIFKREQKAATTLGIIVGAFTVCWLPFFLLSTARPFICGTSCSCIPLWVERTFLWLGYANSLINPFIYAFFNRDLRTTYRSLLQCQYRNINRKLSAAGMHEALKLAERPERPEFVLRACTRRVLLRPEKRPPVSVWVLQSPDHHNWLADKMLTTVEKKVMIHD
Chain of 5-hydroxytryptamine receptor 1D (P28221 whole entry): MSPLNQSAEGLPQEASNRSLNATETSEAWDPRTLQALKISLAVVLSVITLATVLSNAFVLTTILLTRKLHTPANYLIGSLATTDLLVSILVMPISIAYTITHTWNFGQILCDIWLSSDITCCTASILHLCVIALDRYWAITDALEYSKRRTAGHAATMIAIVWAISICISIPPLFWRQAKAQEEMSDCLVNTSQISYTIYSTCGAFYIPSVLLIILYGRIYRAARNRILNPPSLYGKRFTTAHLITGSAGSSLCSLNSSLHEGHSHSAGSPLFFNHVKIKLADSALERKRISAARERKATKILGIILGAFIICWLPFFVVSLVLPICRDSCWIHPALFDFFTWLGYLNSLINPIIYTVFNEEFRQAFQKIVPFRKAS
T3 sequence (P47898 whole entry): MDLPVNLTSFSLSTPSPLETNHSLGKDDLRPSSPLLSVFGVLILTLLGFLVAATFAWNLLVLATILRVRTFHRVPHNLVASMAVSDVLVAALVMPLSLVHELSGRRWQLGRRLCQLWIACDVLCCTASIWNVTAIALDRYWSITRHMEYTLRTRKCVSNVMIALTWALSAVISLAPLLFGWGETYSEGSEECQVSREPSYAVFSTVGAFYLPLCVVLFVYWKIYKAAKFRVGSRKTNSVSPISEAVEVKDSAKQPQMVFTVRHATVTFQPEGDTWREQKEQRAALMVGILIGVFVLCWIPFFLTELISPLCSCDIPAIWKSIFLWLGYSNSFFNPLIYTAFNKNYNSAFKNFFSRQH
Chain of 5-hydroxytryptamine receptor 6 (P50406 whole entry): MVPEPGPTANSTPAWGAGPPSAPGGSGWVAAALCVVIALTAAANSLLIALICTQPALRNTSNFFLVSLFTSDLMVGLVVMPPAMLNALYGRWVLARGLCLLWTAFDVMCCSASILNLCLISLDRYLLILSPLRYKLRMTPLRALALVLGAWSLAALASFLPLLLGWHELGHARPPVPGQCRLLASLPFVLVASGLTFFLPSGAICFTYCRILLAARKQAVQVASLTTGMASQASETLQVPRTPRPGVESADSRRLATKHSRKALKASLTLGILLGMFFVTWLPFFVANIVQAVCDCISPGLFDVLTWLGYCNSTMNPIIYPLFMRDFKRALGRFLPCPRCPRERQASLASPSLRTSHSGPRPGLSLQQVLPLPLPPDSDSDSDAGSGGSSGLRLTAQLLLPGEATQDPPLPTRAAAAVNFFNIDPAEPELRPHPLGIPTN
Chain of 5-hydroxytryptamine receptor 2A (P28223 whole entry): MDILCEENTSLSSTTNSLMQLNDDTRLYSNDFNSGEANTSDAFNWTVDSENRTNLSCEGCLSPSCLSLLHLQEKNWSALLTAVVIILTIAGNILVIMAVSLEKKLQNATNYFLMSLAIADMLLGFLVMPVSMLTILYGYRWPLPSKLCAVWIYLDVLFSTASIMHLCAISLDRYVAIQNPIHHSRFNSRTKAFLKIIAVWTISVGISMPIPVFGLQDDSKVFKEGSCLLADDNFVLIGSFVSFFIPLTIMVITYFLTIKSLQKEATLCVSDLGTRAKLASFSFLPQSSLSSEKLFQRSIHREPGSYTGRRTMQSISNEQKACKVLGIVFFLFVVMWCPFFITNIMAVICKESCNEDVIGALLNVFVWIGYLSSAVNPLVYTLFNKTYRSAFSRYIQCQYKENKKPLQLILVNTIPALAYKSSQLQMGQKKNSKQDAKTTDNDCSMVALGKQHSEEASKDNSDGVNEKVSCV
T5 sequence (P41595 whole entry): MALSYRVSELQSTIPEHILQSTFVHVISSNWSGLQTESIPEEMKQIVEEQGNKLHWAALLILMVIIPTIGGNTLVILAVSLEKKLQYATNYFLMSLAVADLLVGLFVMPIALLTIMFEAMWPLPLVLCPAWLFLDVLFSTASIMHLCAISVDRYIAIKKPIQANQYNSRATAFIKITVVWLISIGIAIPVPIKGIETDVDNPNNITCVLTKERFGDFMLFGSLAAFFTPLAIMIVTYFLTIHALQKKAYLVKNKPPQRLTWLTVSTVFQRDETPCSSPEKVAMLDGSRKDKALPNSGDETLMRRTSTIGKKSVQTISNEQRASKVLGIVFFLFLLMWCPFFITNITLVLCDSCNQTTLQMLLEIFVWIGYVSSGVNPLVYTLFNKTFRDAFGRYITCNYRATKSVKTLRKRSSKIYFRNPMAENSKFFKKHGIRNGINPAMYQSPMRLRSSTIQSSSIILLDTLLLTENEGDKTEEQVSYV
Chain of Histamine H1 receptor (P35367 whole entry): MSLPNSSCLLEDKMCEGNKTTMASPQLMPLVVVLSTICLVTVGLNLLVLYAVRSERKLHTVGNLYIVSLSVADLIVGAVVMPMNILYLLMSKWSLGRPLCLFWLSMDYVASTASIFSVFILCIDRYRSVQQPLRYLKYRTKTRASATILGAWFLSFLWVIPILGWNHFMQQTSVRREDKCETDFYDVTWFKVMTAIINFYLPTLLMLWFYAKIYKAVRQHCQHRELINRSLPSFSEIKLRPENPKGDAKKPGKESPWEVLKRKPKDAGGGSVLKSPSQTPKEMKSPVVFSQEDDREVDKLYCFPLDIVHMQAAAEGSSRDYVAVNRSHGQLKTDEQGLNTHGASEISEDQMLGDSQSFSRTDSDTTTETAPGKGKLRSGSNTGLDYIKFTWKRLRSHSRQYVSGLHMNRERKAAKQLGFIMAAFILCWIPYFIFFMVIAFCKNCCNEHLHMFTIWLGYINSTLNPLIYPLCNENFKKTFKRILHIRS

| Compound | Ki [2] [nM] | Ki [3] [nM] | Ki [6] [nM] | Ki [7] [nM] | Ki [8] [nM] | also measured |
| --- | --- | --- | --- | --- | --- | --- |
| CNC1=Nc2ccc(Cl)c(Cl)c2C(C)N1 (stereo not given) | 94 | 454 | 13.2 | 246 | – | Ratio Ki (Homo sapiens [1]): > 30; Ratio Ki (Homo sapiens [4]): > 30; Ratio Ki (Homo sapiens [5]): > 30 |
| Cc1cccc2c1N=C(N)NC2 | – | – | – | – | 463 | – |
| CCCC1NC(N)=Nc2ccccc21 (stereo not given) | – | – | – | – | 805 | – |
| COc1ccc2c(c1)N=C(N)NC2 | – | – | – | – | 1380 | – |
| NC1=Nc2cc(Cl)ccc2CN1 | – | – | – | – | 347 | – |
| NC1=Nc2ccc(F)cc2CN1 | – | – | – | – | 911 | – |
| NC1=Nc2ccccc2CN1 | – | – | – | – | 658 | – |
| CCC1NC(N)=Nc2cccc(Cl)c21 (stereo not given) | 380 | > 10000 | 97.4 | 1080 | 84.4 | – |
| Cc1ccc2c(c1)N=C(N)NC2 | – | – | – | – | 274 | – |
| CC(C)Oc1cccc2c1N=C(N)NC2C (stereo not given) | 488 | 70 | 1 | 265 | – | Ratio Ki (Homo sapiens [1]): > 30; Ratio Ki (Homo sapiens [4]): > 30; Ratio Ki (Homo sapiens [5]): > 30; Ratio Ki (Homo sapiens [9]): 7 |
| NC1=Nc2ccc(Cl)c(Cl)c2CN1 | 208 | 1260 | 294 | 1080 | 43 | Ki [10]: 434 nM; Ki [11]: 172 nM; Ki [12]: 1160 nM |
| CC1NC(N)=Nc2cccc(Cl)c21 (stereo not given) | 152 | 1270 | 15.9 | 192 | – | inhibition [13]: > 60%; fraction unbound [14]: 0.16; IC50 [15]: > 400 nM; inhibition [16]: > 60%; Ki (Histamine H1 receptor): 1100 nM; IC50 [17]: > 400 nM; Kb [18]: 3.02 nM |
| CN1Cc2ccccc2N=C1N | – | – | – | – | > 10000 | – |
| NC1=Nc2cccc(F)c2CN1 | – | – | – | – | 550 | – |
| CCC1NC(N)=Nc2ccc(Cl)c(Cl)c21 (stereo not given) | 155 | 1270 | 73 | 765 | 26.5 | – |
| NC1=Nc2cccc(Cl)c2CN1 [listing 1 of 2 here] | – | – | – | – | – | Ki ([8]; hek293-ebna): 99 nM |
| NC1=Nc2c(F)cccc2CN1 | – | – | – | – | 1990 | – |
| NC1=Nc2c(Cl)cccc2CN1 | – | – | – | – | 892 | – |

| Compound | Ki [2] [nM] | Ki [3] [nM] | Ki [6] [nM] | Ki [7] [nM] | Ki [8] [nM] | also measured |
| --- | --- | --- | --- | --- | --- | --- |
| CCC1NC(N)=Nc2ccccc21 (stereo not given) | – | – | – | – | 24 | – |
| NC1=Nc2cc(F)ccc2CN1 | – | – | – | – | 647 | – |
| CC1(C)NC(N)=Nc2ccccc21 | – | – | – | – | 1170 | – |
| NC1=Nc2ccc(Cl)cc2CN1 | – | – | – | – | 807 | – |
| CNC1=Nc2c(OC(C)C)cccc2C(C)N1 (stereo not given) | 970 | 160 | 2.4 | 669 | – | Ratio Ki (Homo sapiens [1]): > 30; Ratio Ki (Homo sapiens [4]): > 30; Ratio Ki (Homo sapiens [5]): > 30; Ratio Ki (Homo sapiens [9]): 7 |
| CN(C)C1=Nc2ccccc2CN1 | – | – | – | – | 2800 | – |
| Cc1ccc2c(c1)CNC(N)=N2 | – | – | – | – | 882 | – |
| Cc1cccc2c1CNC(N)=N2 | – | – | – | – | 145 | – |
| COc1c(Cl)ccc2c1C(C)NC(N)=N2 (stereo not given) | 74 | 1160 | 12.4 | 339 | 22.9 | – |
| COc1cccc2c1N=C(N)NC2C (stereo not given) | 556 | 446 | 8.2 | 32 | – | Ratio Ki (Homo sapiens [1]): > 30; Ratio Ki (Homo sapiens [4]): > 30; Ratio Ki (Homo sapiens [5]): > 30 |
| NC1=Nc2cccc(Cl)c2CN1 [listing 2 of 2 here] | 658 | 3590 | 793 | 1700 | 99 | Ki [10]: 1160 nM; Ki [11]: 1050 nM; Ki [12]: > 10000 nM |
| CC1NC(N)=Nc2ccccc21 (stereo not given) | – | – | – | – | 38 | – |
| COc1cc(Cl)c(C)c2c1N=C(N)NC2C (stereo not given) | 19 | 143 | 2.5 | 105 | – | Ratio Ki (Homo sapiens [1]): > 30; Ratio Ki (Homo sapiens [4]): > 30; Ratio Ki (Homo sapiens [5]): > 30 |
| CNC1=Nc2ccccc2CN1 | – | – | – | – | 1790 | – |
| CC1NC(N)=Nc2c(Cl)ccc(Cl)c21 (stereo not given) | 74 | 966 | 2.4 | 91 | 6.5 | Ratio Ki (Homo sapiens [1]): > 30; Ratio Ki (Homo sapiens [4]): > 30; Ratio Ki (Homo sapiens [5]): > 30 |
| COc1cccc2c1N=C(N)NC2 | – | – | – | – | 97 | – |
| CC1NC(N)=Nc2ccc(Cl)c(Cl)c21 (stereo not given) | 26 | 260 | 8.7 | 181 | – | Ratio Ki (Homo sapiens [1]): > 30; Ratio Ki (Homo sapiens [4]): > 30; Ratio Ki (Homo sapiens [5]): > 30; Ki (Histamine H1 receptor): 8 nM |
| CNC1=Nc2cccc(Cl)c2C(C)N1 (stereo not given) | 235 | 1460 | 15.3 | 389 | – | Ratio Ki (Homo sapiens [1]): > 30; Ratio Ki (Homo sapiens [4]): > 30; Ratio Ki (Homo sapiens [5]): > 30; Kb [18]: 7.41 nM |
